Measured values: BigSolDB 2.1

OC[C@@H](O)C(O)[C@@H](O)CO (some centres not stated)
Details	solubility (mole fraction)
in DMF, 293.21 K	0.0411
in DMF, 298.29 K	0.0504
in DMF, 303.26 K	0.0609
in DMF, 308.24 K	0.0736
in DMF, 313.22 K	0.0895
in DMF, 318.32 K	0.11
in DMF, 323.2 K	0.134
in DMF, 328.24 K	0.166
in DMF, 333.27 K	0.204
in acetone, 293.29 K	0.000203
in acetone, 298.18 K	0.00024
in acetone, 303.26 K	0.000304
in acetone, 308.22 K	0.000401
in acetone, 313.2 K	0.000543
in acetone, 318.23 K	0.000743
in acetone, 323.2 K	0.00101
in ethanol, 293.23 K	0.00173
in ethanol, 298.28 K	0.00242
in ethanol, 303.17 K	0.00309
in ethanol, 308.21 K	0.00397
in ethanol, 313.19 K	0.00522
in ethanol, 318.29 K	0.00709
in ethanol, 323.24 K	0.00966
in ethanol, 328.19 K	0.0132
in ethanol, 333.22 K	0.0179
in isopropanol, 293.28 K	0.00113
in isopropanol, 298.2 K	0.00154
in isopropanol, 303.23 K	0.00212
in isopropanol, 308.19 K	0.00268
in isopropanol, 313.32 K	0.00342
in isopropanol, 318.21 K	0.00443
in isopropanol, 323.16 K	0.00588
in isopropanol, 328.21 K	0.00798
in isopropanol, 333.27 K	0.0109
in isopropanol, 338.19 K	0.0146
in isopropanol, 343.23 K	0.0194
in n-butanol, 293.16 K	0.00113
in n-butanol, 298.21 K	0.00154
in n-butanol, 303.26 K	0.00212
in n-butanol, 308.27 K	0.00268
in n-butanol, 313.22 K	0.00342
in n-butanol, 318.16 K	0.00443
in n-butanol, 323.23 K	0.00588
in n-butanol, 328.32 K	0.00798
in n-butanol, 333.24 K	0.0109
in n-butanol, 338.22 K	0.0146
in n-butanol, 343.76 K	0.0194
in n-pentanol, 293.2 K	0.000298
in n-pentanol, 298.18 K	0.000483
in n-pentanol, 303.26 K	0.000734
in n-pentanol, 308.29 K	0.00101
in n-pentanol, 313.19 K	0.00136
in n-pentanol, 318.24 K	0.00188
in n-pentanol, 323.29 K	0.00263
in n-pentanol, 328.23 K	0.00364
in n-pentanol, 333.22 K	0.005
in n-pentanol, 338.33 K	0.00682
in n-pentanol, 343.24 K	0.00903
in toluene, 293.26 K	3.99e-05
in toluene, 298.28 K	4.18e-05
in toluene, 303.19 K	4.52e-05
in toluene, 308.17 K	5e-05
in toluene, 313.23 K	5.63e-05
in toluene, 318.33 K	6.42e-05
in toluene, 323.21 K	7.31e-05
in toluene, 328.22 K	8.37e-05
in toluene, 333.3 K	9.6e-05
in toluene, 338.16 K	0.000109
in toluene, 343.19 K	0.000124
in water, 293.28 K	0.162
in water, 298.3 K	0.18
in water, 303.17 K	0.203
in water, 308.21 K	0.232
in water, 313.29 K	0.266
in water, 318.26 K	0.302
in water, 323.25 K	0.339
in water, 328.21 K	0.377
